Patent publication US12534452B2, “N-(1H-imidazol-2-yl)benzamide compound and pharmaceutical composition comprising the same as active ingredient” (KAINOS MEDICINE, INC., priority 2019, dated 2026)

What follows are compounds tested against IRAK4 (Homo sapiens (Human), UniProt Q9NWZ3) (assay: In vitro IRAK4 phosphorylation activity assay). Conditions: [γ-33P]-ATP, myelin basic protein substrate, 40 minutes at room temperature; categories.
Assay type: biochemical
Protocol: In vitro IRAK4 analysis was performed using N-(1H-imidazol-2-yl)benzamide compounds according to the present invention. All compounds were prepared by dissolving in DMSO. N-(1H-imidazol-2-yl)benzamide compound according to the present invention and other elements for the reaction were added to an assay well. In the standard Kinase Profiler service the preincubation step between the N-(1H-imidazol-2-yl)benzamide compound and kinase was not performed before the reaction.
To the positive control well, all reactants except for the N-(1H-imidazol-2-yl)benzamide compound according to the present invention were added, and DMSO was added to remove the solvent effect. A known control inhibitor having the following structure was added to the blank wells to inhibit kinase activity and establish a base-line.
IRAK4 was incubated with 8 mM MOPS pH 7.0, 0.2 mM EDTA, 0.33 mg/mL myelin basic protein, 10 mM magnesium acetate and [γ-33P]-ATP (specific activity approx. 500 cpm/pmol, concentration as required). The reaction was initiated by the addition of the MgATP mix. After incubation for 40 minutes at room temperature, the reaction was stopped by the addition of 3% phosphoric acid solution. 10 μL of the reaction was then spotted onto a P30 filtermat and washed three times for 5 minutes in 75 mM phosphoric acid and once in methanol prior to drying and scintillation counting.
The results are shown in Table 26 below, where the phosphorylation activity of IC50 values for IRAK4 is shown in categories (A: <50 nM, B: 50-100 nM, C: >100 nM).

IRAK4, sequence (Q9NWZ3 whole entry): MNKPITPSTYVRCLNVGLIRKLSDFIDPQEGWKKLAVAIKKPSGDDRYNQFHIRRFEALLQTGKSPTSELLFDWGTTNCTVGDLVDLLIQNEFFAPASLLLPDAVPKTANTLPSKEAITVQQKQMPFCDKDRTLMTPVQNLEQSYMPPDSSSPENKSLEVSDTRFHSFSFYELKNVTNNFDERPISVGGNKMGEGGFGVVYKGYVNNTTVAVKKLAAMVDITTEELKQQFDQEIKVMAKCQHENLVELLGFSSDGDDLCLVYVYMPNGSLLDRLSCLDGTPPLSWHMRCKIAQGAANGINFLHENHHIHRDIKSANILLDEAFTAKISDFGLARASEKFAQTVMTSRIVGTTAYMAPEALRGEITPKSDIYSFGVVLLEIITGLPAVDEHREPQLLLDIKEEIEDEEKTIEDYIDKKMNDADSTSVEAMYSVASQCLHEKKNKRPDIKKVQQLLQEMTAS

IC50 [nM] | Structure (SMILES)
< 50 | O=C(Nc1nc(CCCCCCN2CCOCC2)cn1-c1ccccc1)c1cccc(-c2ccc3[nH]ncc3c2)c1 [Example 254, 3-(1H-indazol-5-yl)-N-(4-(6-morpholinohexyl)-1-phenyl-1H-imidazol-2-yl)benzamide]
< 50 | Cn1cc(-c2cccc(C(=O)Nc3nc(CCCC(=O)N4CCC[C@@H](N)C4)cn3-c3ccccc3)c2)cn1 [Example 210, (R)—N-(4-(4-(3-aminopiperidin-1-yl)-4-oxobutyl)-1-phenyl-1H-imidazol-2-yl)-3-(1-methyl-1H-pyrazol-4-yl)benzamide]
< 50 | CN1CCN(C(=O)CCCc2cn(-c3ccccc3)c(NC(=O)c3cccc(-c4ccc5ncsc5c4)c3)n2)CC1 [Example 280, 3-(benzo[d]thiazol-6-yl)-N-(4-(4-(4-methylpiperazin-1-yl)-4-oxobutyl)-1-phenyl-1H-imidazol-2-yl)benzamide]
50 to 100 | Cn1ncc(-c2cccc(C(=O)Nc3nc(CCCC(=O)NC4CC4)cn3-c3ccccc3)c2)c1F [Example 232, N-(4-(4-(cyclopropylamino)-4-oxobutyl)-1-phenyl-1H-imidazol-2-yl)-3-(5-fluoro-1-methyl-1H-pyrazol-4-yl)benzamide]
< 50 | Cn1cc(-c2cccc(C(=O)Nc3nc(CCCCNC(=O)C4CC4)cn3-c3ccccc3)c2)cn1 [Example 227, N-(4-(4-(cyclopropanecarboxamido)butyl)-1-phenyl-1H-imidazol-2-yl)-3-(1-methyl-1H-pyrazol-4-yl)benzamide]
< 50 | O=C(CCCc1cn(-c2ccccc2)c(NC(=O)c2cccc(-c3ccncc3)c2)n1)NC1CC1 [Example 267, N-(4-(4-(cyclopropylamino)-4-oxobutyl)-1-phenyl-1H-imidazol-2-yl)-3-(pyridin-4-yl)benzamide]
< 50 | CN1CCCN(C(=O)CCCc2cn(-c3ccccc3)c(NC(=O)c3cccc(-c4cnn(C)c4)c3)n2)CC1 [Example 183, N-(4-(4-(4-methyl-1,4-diazepan-1-yl)-4-oxobutyl)-1-phenyl-1H-imidazol-2-yl)-3-(1-methyl-1H-pyrazol-4-yl)benzamide]
< 50 | Cn1cc(-c2cccc(C(=O)Nc3nc(CCCC(=O)N4CCN(c5ccccc5)CC4)cn3-c3ccccc3)c2)cn1 [Example 188, 3-(1-methyl-1H-pyrazol-4-yl)-N-(4-(4-oxo-4-(4-phenylpiperazin-1-yl)butyl)-1-phenyl-1H-imidazol-2-yl)benzamide]
< 50 | O=C(Nc1nc(CCCCCC(=O)N2CCCC2)cn1-c1ccccc1)c1cccc(-c2ccc3[nH]ncc3c2)c1 [Example 240, 3-(1H-indazol-5-yl)-N-(4-(6-oxo-6-(pyrrolidin-1-yl)hexyl)-1-phenyl-1H-imidazol-2-yl)benzamide]
< 50 | O=C(CCCc1cn(-c2ccccc2)c(NC(=O)c2cccc(-c3ccc4[nH]ncc4c3)c2)n1)NC1CC1 [Example 245, N-(4-(4-(cyclopropylamino)-4-oxobutyl)-1-phenyl-1H-imidazol-2-yl)-3-(1H-indazol-5-yl)benzamide]
50 to 100 | Cn1cc(-c2cccc(C(=O)Nc3nc(CCC(=O)Nc4ccccc4)cn3-c3ccccc3)c2)cn1 [Example 193, 3-(1-methyl-1H-pyrazol-4-yl)-N-(4-(3-oxo-3-(phenylamino)propyl)-1-phenyl-1H-imidazol-2-yl)benzamide]

Second part, the compound before the results:

Structure (SMILES) | IC50 [nM]
COC[C@@H]1CCCN1NC(=O)CCCCCc1cn(-c2ccccc2)c(NC(=O)c2cccc(-c3cn[nH]c3)c2)n1 [Example 98, (S)—N-(4-(6-((2-(methoxymethyl)pyrrolidin-1-yl)amino)-6-oxohexyl)-1-phenyl-1H-imidazol-2-yl)-3-(1H-pyrazol-4-yl)benzamide] | < 50
O=C(Nc1nc(CCCCNc2ccccc2)cn1-c1ccccc1)c1cccc(-c2cn[nH]c2)c1 [Example 112, N-(1-phenyl-4-(4-(phenylamino)butyl)-1H-imidazol-2-yl)-3-(1H-pyrazol-4-yl)benzamide] | > 100
O=C(CCc1cn(-c2ccccc2)c(NC(=O)c2cccc(-c3cnoc3)c2)n1)Nc1ccccc1 [Example 5, 3-(isoxazol-4-yl)-N-(4-(3-oxo-3-(phenylamino)propyl)-1-phenyl-1H-imidazol-2-yl)benzamide] | > 100
CNC(=O)CCCc1cn(-c2ccccc2)c(NC(=O)c2cccc(-c3cnn(C)c3)c2)n1 [Example 139, 3-(1-methyl-1H-pyrazol-4-yl)-N-(4-(4-(methylamino)-4-oxobutyl)-1-phenyl-1H-imidazol-2-yl)benzamide] | < 50
O=C(Nc1nc(CCC(=O)N2CCN(Cc3ccc(OC(F)(F)F)cc3)CC2)cn1-c1ccccc1)c1cccc(-c2cn[nH]c2)c1 [Example 14, N-(4-(3-oxo-3-(4-(4-(trifluoromethoxy)benzyl)piperazin-1-yl)propyl)-1-phenyl-1H-imidazol-2-yl)-3-(1H-pyrazol-4-yl)benzamide] | > 100
Cn1cc(-c2cccc(C(=O)Nc3nc(CCCC(=O)N4CCCC(O)C4)cn3-c3ccccc3)c2)cn1 (stereo not shown) [Example 178, N-(4-(4-(3-hydroxypiperidin-1-yl)-4-oxobutyl)-1-phenyl-1H-imidazol-2-yl)-3-(1-methyl-1H-pyrazol-4-yl)benzamide] | < 50
CN(C)C1CCC(NC(=O)CCCc2cn(-c3ccccc3)c(NC(=O)c3cccc(-c4cnn(C)c4)c3)n2)CC1 (stereo not shown) [Example 147, N-(4-(4-((4-(dimethylamino)cyclohexyl)amino)-4-oxobutyl)-1-phenyl-1H-imidazol-2-yl)-3-(1-methyl-1H-pyrazol-4-yl)benzamide] | < 50
O=C(CCCc1cn(-c2ccccc2)c(NC(=O)c2cccc(-c3cn[nH]c3)c2)n1)Nc1ccccc1 [Example 52, N-(4-(4-oxo-4-(phenylamino)butyl)-1-phenyl-1H-imidazol-2-yl)-3-(1H-pyrazol-4-yl)benzamide] | < 50
O=C(Nc1nc(CCCCCN2CCOCC2)cn1-c1ccccc1)c1cccc(-c2cn[nH]c2)c1 [Example 119, N-(4-(5-morpholinopentyl)-1-phenyl-1H-imidazol-2-yl)-3-(1H-pyrazol-4-yl)benzamide] | < 50
COC(=O)CCc1cn(-c2ccccc2)c(NC(=O)c2cccc(-c3cn[nH]c3)c2)n1 [Example 18, methyl 3-(2-(3-(1H-pyrazol-4-yl)benzamido)-1-phenyl-1H-imidazol-4-yl)propanoate] | < 50
COC[C@H]1CCCN1C(=O)CCCCc1cn(-c2ccccc2)c(NC(=O)c2cccc(-c3cn[nH]c3)c2)n1 [Example 87, (R)—N-(4-(5-(2-(methoxymethyl)pyrrolidin-1-yl)-5-oxopentyl)-1-phenyl-1H-imidazol-2-yl)-3-(1H-pyrazol-4-yl)benzamide] | < 50
Cn1cc(-c2cccc(C(=O)Nc3nc(CCCC(=O)N4CCN(C5CC5)CC4)cn3-c3ccccc3)c2)cn1 [Example 149, N-(4-(4-(4-cyclopropylpiperazin-1-yl)-4-oxobutyl)-1-phenyl-1H-imidazol-2-yl)-3-(1-methyl-1H-pyrazol-4-yl)benzamide] | < 50
C[Si](C)(C)CCOCn1cc(-c2cccc(C(=O)Nc3nc(CCCC(=O)NC4CC4)cn3-c3ccccc3)c2)cn1 [Example 67, N-(4-(4-(cyclopropylamino)-4-oxobutyl)-1-phenyl-1H-imidazol-2-yl)-3-(1-((2-(trimethylsilyl)ethoxy)methyl)-1H-pyrazol-4-yl)benzamide] | > 100
COC(=O)CCCCc1cn(-c2ccccc2)c(NC(=O)c2cccc(-c3cn[nH]c3)c2)n1 [Example 77, methyl 5-(2-(3-(1H-pyrazol-4-yl)benzamido)-1-phenyl-1H-imidazol-4-yl)pentanoate] | < 50
O=C(Nc1nc(CCC(=O)N2CCCC[C@H]2C(F)(F)F)cn1-c1ccccc1)c1cccc(-c2cn[nH]c2)c1 [Example 38, (S)—N-(4-(3-oxo-3-(2-(trifluoromethyl)piperidin-1-yl)propyl)-1-phenyl-1H-imidazol-2-yl)-3-(1H-pyrazol-4-yl)benzamide] | < 50
Cn1cc(-c2cccc(C(=O)Nc3nc(CCCC(=O)N4CCN(C5CCCCC5)CC4)cn3-c3ccccc3)c2)cn1 [Example 182, N-(4-(4-(4-cyclohexylpiperazin-1-yl)-4-oxobutyl)-1-phenyl-1H-imidazol-2-yl)-3-(1-methyl-1H-pyrazol-4-yl)benzamide] | < 50
CC1CCCCN1C(=O)CCCc1cn(-c2ccccc2)c(NC(=O)c2cccc(-c3cnn(C)c3)c2)n1 (stereo not shown) [Example 166, 3-(1-methyl-1H-pyrazol-4-yl)-N-(4-(4-(2-methylpiperidin-1-yl)-4-oxobutyl)-1-phenyl-1H-imidazol-2-yl)benzamide] | < 50
O=C(Nc1nc(CCCCCN2CCSCC2)cn1-c1ccccc1)c1cccc(-c2cn[nH]c2)c1 [Example 120, N-(1-phenyl-4-(5-thiomorpholinopentyl)-1H-imidazol-2-yl)-3-(1H-pyrazol-4-yl)benzamide] | < 50
O=C(O)CCCCCc1cn(-c2ccccc2)c(NC(=O)c2cccc(-c3cn[nH]c3)c2)n1 [Example 92, 6-(2-(3-(1H-pyrazol-4-yl)benzamido)-1-phenyl-1H-imidazol-4-yl)hexanoic acid] | < 50
C[C@@H]1CC[C@@H](C)N1C(=O)CCc1cn(-c2ccccc2)c(NC(=O)c2cccc(-c3cn[nH]c3)c2)n1 [Example 29, N-(4-(3-((2R,5R)-2,5-dimethylpyrrolidin-1-yl)-3-oxopropyl)-1-phenyl-1H-imidazol-2-yl)-3-(1H-pyrazol-4-yl)benzamide] | < 50
